The source made the active and inactive calls. No cut-off for these calls is given here.
Tests used:
[1] = system: Mus musculus; experiment: Unbound clearance in C57Bl/6J mouse administered iv or po; assay type: ADME, organism-based; details: in vivo
[2] = biological target: T1, Group 10 secretory phospholipase A2 (Homo sapiens, UniProt O15496); experiment: Inhibition of recombinant human sPLA2-10 using human HDL as substrate pretreated for 20 mins followed by substrate addition and measured after 60 mins by NEFA based assay
T1 sequence (O15496 whole entry): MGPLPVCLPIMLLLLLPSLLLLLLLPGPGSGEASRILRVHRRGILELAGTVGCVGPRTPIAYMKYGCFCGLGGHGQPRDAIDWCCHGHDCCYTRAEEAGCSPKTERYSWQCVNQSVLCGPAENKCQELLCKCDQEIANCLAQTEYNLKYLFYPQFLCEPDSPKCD

[3] = Intrinsic clearance in human hepatocytes assessed per million cells; assay type: ADME, cell-based, Hepatocyte; details: read-out: CLH
[4] = biological target: T2, Phospholipase A2, membrane associated (Homo sapiens, UniProt P14555); experiment: Inhibition of sPLA2-2A (unknown origin) using 1-palmitoyl-2-oleoyl-sn-glycero-3-phosphocholine as substrate pretreated for 20 mins followed by substrate addition and measured after 60 mins by NEFA based assay
T2 sequence (P14555 whole entry): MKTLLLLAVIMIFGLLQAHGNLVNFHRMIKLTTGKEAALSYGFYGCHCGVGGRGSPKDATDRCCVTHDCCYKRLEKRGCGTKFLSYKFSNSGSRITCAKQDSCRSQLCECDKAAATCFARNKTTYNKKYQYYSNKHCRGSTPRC

[5] = biological target: T3, Phospholipase A2 group V (Homo sapiens, UniProt P39877); experiment: Inhibition of sPLA2-5 (unknown origin) using 1-palmitoyl-2-oleoyl-sn-glycero-3-phosphocholine as substrate pretreated for 20 mins followed by substrate addition and measured after 60 mins by NEFA based assay
T3 sequence (P39877 whole entry): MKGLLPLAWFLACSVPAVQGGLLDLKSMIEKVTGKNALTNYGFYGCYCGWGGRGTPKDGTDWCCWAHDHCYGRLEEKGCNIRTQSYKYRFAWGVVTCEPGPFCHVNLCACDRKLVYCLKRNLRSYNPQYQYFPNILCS

[6] = biological target: T1, Group 10 secretory phospholipase A2; experiment: Inhibition of sPLA2-10 (unknown origin) using 1-palmitoyl-2-oleoyl-sn-glycero-3-phosphocholine as substrate pretreated for 20 mins followed by substrate addition and measured after 60 mins by NEFA based assay
[7] = biological target: T4, Phospholipase A2 group V (Homo sapiens) (UniProt P39877); experiment: Inhibition of sPLA2-5 (unknown origin) at 10 uM using 1-palmitoyl-2-oleoyl-sn-glycero-3-phosphocholine as substrate pretreated for 20 mins followed by substrate addition and measured after 60 mins by NEFA based assay
T4 sequence (whole entry): T3 sequence (P39877 whole entry)

[8] = biological target: Phospholipase A2, membrane associated (Homo sapiens) (UniProt P14555); experiment: Inhibition of sPLA2-2A (unknown origin) at 10 uM using 1-palmitoyl-2-oleoyl-sn-glycero-3-phosphocholine as substrate pretreated for 20 mins followed by substrate addition and measured after 60 mins by NEFA based assay
[9] = species on record: Homo sapiens; experiment: Selectivity ratio of IC50 for sPLA2-2A (unknown origin) to IC50 for sPLA2-10 (unknown origin)
[10] = species on record: Homo sapiens; experiment: Selectivity ratio of IC50 for sPLA2-5 (unknown origin) to IC50 for sPLA2-10 (unknown origin)
[11] = Lipophilicity, log D of compound at pH 7.4; details: buffer
[12] = system: Mus musculus; experiment: Anti-atherosclerosis activity in ApoE knockout pro-atherogenic western diet-induced Tac mouse carotid artery ligation model of atherosclerosis assessed as reduction in plasma triglyceride levels at 75 umol/kg/day mixed with food measured for 3 weeks; assay type: functional, organism-based
[13] = system: Mus musculus; experiment: Anti-atherosclerosis activity in ApoE knockout pro-atherogenic western diet-induced Tac mouse carotid artery ligation model of atherosclerosis assessed as increase in lumen thickness at 75 to 150 umol/kg/day mixed with food measured for 3 weeks by ultrasound biomicroscopy; assay type: functional, organism-based
[14] = system: Mus musculus; experiment: Anti-atherosclerosis activity in ApoE knockout pro-atherogenic western diet-induced Tac mouse carotid artery ligation model of atherosclerosis assessed as reduction in plasma free cholesterol levels at 150 umol/kg/day mixed with food measured for 3 weeks; assay type: functional, organism-based
[15] = system: Mus musculus; experiment: Anti-atherosclerosis activity in ApoE knockout pro-atherogenic western diet-induced Tac mouse carotid artery ligation model of atherosclerosis assessed as reduction in plasma esterified cholesterol levels at 75 umol/kg/day mixed with food measured for 3 weeks; assay type: functional, organism-based
[16] = system: Mus musculus; experiment: Anti-atherosclerosis activity in ApoE knockout pro-atherogenic western diet-induced Tac mouse carotid artery ligation model of atherosclerosis assessed as reduction in plasma free cholesterol levels at 75 umol/kg/day mixed with food measured for 3 weeks; assay type: functional, organism-based
[17] = system: Mus musculus; experiment: Anti-atherosclerosis activity in ApoE knockout pro-atherogenic western diet-induced Tac mouse carotid artery ligation model of atherosclerosis assessed as reduction in plasma triglyceride levels at 150 umol/kg/day mixed with food measured for 3 weeks; assay type: functional, organism-based
[18] = biological target: Group 10 secretory phospholipase A2 (Homo sapiens) (UniProt O15496)
[19] = system: Mus musculus; experiment: Anti-atherosclerosis activity in ApoE knockout pro-atherogenic western diet-induced Tac mouse carotid artery ligation model of atherosclerosis assessed as reduction in plasma lipoprotein-associated cholesterol fraction levels at 75 umol/kg/day mixed with food measured for 3 weeks; assay type: functional, organism-based
[20] = system: Mus musculus; experiment: Anti-atherosclerosis activity in ApoE knockout pro-atherogenic western diet-induced Tac mouse carotid artery ligation model of atherosclerosis assessed as reduction in thickness of artery wall at 75 to 150 umol/kg/day mixed with food measured for 3 weeks by ultrasound biomicroscopy; assay type: functional, organism-based
[21] = biological target: Group 10 secretory phospholipase A2 (Mus musculus) (UniProt Q9QXX3); experiment: Inhibition of mouse sPLA2-10
[22] = system: Mus musculus; experiment: Anti-atherosclerosis activity in ApoE knockout pro-atherogenic western diet-induced Tac mouse carotid artery ligation model of atherosclerosis assessed as reduction in heart rate at 75 to 150 umol/kg/day mixed with food measured for 3 weeks by doppler echocardiography; assay type: functional, organism-based
[23] = system: Mus musculus; experiment: Anti-atherosclerosis activity in ApoE knockout pro-atherogenic western diet-induced Tac mouse carotid artery ligation model of atherosclerosis assessed as reduction in plasma free fatty acid levels at 75 umol/kg/day mixed with food measured for 3 weeks; assay type: functional, organism-based
[24] = system: Mus musculus; experiment: Anti-atherosclerosis activity in ApoE knockout pro-atherogenic western diet-induced Tac mouse carotid artery ligation model of atherosclerosis assessed as reduction in plasma lipoprotein-associated cholesterol fraction levels at 150 umol/kg/day mixed with food measured for 3 weeks; assay type: functional, organism-based
[25] = system: Mus musculus; experiment: Anti-atherosclerosis activity in ApoE knockout pro-atherogenic western diet-induced Tac mouse carotid artery ligation model of atherosclerosis assessed as reduction in neointima and media formation at 75 to 150 umol/kg/day mixed with food measured for 3 weeks; assay type: functional, organism-based
[26] = system: Mus musculus; experiment: Anti-atherosclerosis activity in ApoE knockout pro-atherogenic western diet-induced Tac mouse carotid artery ligation model of atherosclerosis assessed as reduction in plasma esterified cholesterol levels at 150 umol/kg/day mixed with food measured for 3 weeks; assay type: functional, organism-based
[27] = system: Mus musculus; experiment: Anti-atherosclerosis activity in ApoE knockout pro-atherogenic western diet-induced Tac mouse carotid artery ligation model of atherosclerosis assessed as reduction in coronary flow reserve at 75 to 150 umol/kg/day mixed with food measured for 3 weeks by doppler echocardiography; assay type: functional, organism-based
[28] = system: Mus musculus; experiment: Anti-atherosclerosis activity in ApoE knockout pro-atherogenic western diet-induced Tac mouse carotid artery ligation model of atherosclerosis assessed as reduction in plasma free fatty acid levels at 150 umol/kg/day mixed with food measured for 3 weeks; assay type: functional, organism-based

Sequence of Group 10 secretory phospholipase A2 (Mus musculus) (Q9QXX3 whole entry): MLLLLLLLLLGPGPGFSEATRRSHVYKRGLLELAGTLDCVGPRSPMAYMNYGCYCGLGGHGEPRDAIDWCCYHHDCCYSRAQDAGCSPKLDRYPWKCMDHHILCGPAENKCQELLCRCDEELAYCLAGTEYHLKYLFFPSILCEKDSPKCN

Structure (SMILES)	IC50 [2]	IC50 [4]	IC50 [5]	IC50 [6]	other results
NC(=O)c1cc2ccc(OC(F)(F)F)cc2n1-c1cccc(CCC(=O)O)c1	310 nM	–	–	–	CL free [1]: 1446 mL/min/kg; hepatocyte CLint [3]: 9.33 µL/min/1e6 cells
CC(C)(Cc1cccc(-n2c(C(N)=O)cc3ccc(OC(F)(F)F)cc32)n1)C(=O)O	–	3100 nM	> 10000 nM	320 nM	–
NC(=O)c1cc2ccc(OC(F)(F)F)cc2n1-c1cnn(CCC(=O)O)c1	–	4500 nM	2700 nM	> 10000 nM	–
NC(=O)c1cc2ccc(OC(F)(F)F)cc2n1-c1ccnc(CCC(=O)O)c1	1600 nM	1200 nM	2100 nM	240 nM	hepatocyte CLint [3]: < 5 µL/min/1e6 cells
NC(=O)c1cc2ccc(OC(F)(F)F)cc2n1-c1ccc(CCC(=O)O)o1	–	1900 nM	5900 nM	430 nM	–
C[C@H](CC(=O)O)c1cccc(-n2c(C(N)=O)cc3ccc(OC(F)(F)F)cc32)c1	–	3900 nM	8600 nM	200 nM	–
NC(=O)c1cc2ccc(OC(F)(F)F)cc2n1-c1ccc(=O)n(CCC(=O)O)c1	–	–	–	4800 nM	inhibition [7]: inactive; inhibition [8]: inactive
C[C@@H](CC(=O)O)c1cccc(-n2c(C(N)=O)cc3ccc(OC(F)(F)F)cc32)c1	110 nM	820 nM	5100 nM	15 nM	CL free [1]: 1025 mL/min/kg; Ratio IC50 [9]: 60; Ratio IC50 [10]: 360; logD [11]: 1.3
NC(=O)c1cc2ccc(OC(F)(F)F)cc2n1-c1cc(CCC(=O)O)ccn1	640 nM	290 nM	720 nM	110 nM	hepatocyte CLint [3]: < 5 µL/min/1e6 cells
NC(=O)c1cc2ccc(OC(F)(F)F)cc2n1-c1ccn(CCC(=O)O)n1	–	4000 nM	–	4800 nM	inhibition [7]: inactive
NC(=O)c1cc2ccc(OC(F)(F)F)cc2n1-c1cccc(CCC(=O)O)n1	250 nM	470 nM	2300 nM	29 nM	hepatocyte CLint [3]: < 5 µL/min/1e6 cells
CC(CC(=O)O)c1cccc(-n2c(C(N)=O)cc3ccc(OC(F)(F)F)cc32)n1 (single isomer, unassigned; (+)) [listing 1 of 2 here]	–	3800 nM	–	500 nM	–
CC(CC(=O)O)c1cccc(-n2c(C(N)=O)cc3ccc(OC(F)(F)F)cc32)n1 (single isomer, unassigned; (+)) [listing 2 of 2 here]	–	–	–	–	inhibition [7]: inactive
CCC(Cc1cccc(-n2c(C(N)=O)cc3ccc(OC(F)(F)F)cc32)n1)C(=O)O (stereo in doubt)	–	840 nM	> 10000 nM	940 nM	–
COC(Cc1cccc(-n2c(C(N)=O)cc3ccc(OC(F)(F)F)cc32)c1)C(=O)O (stereo in doubt) [listing 1 of 2 here]	–	2700 nM	–	170 nM	–
CC(Cc1ccnc(-n2c(C(N)=O)cc3ccc(OC(F)(F)F)cc32)c1)C(=O)O (stereo in doubt)	3400 nM	340 nM	1600 nM	360 nM	–
CC(Cc1cccc(-n2c(C(N)=O)cc3ccc(OC(F)(F)F)cc32)n1)C(=O)O (stereo in doubt)	–	1700 nM	> 10000 nM	570 nM	–
CC(Cc1cccc(-n2c(C(N)=O)cc3ccc(OC(F)(F)F)cc32)c1)C(=O)O (stereo in doubt)	2800 nM	810 nM	> 10000 nM	100 nM	–
COC(Cc1cccc(-n2c(C(N)=O)cc3ccc(OC(F)(F)F)cc32)c1)C(=O)O (stereo in doubt) [listing 2 of 2 here]	–	–	–	–	inhibition [7]: inactive
CC(Cc1cccc(-n2c(C(N)=O)cc3ccc(OC(F)(F)F)cc32)c1)C(=O)O (stereo in doubt; 10)	350 nM	57 nM	510 nM	32 nM	–
COC(Cc1cccc(-n2c(C(N)=O)cc3ccc(OC(F)(F)F)cc32)c1)C(=O)O (stereo in doubt; 11)	140 nM	140 nM	2100 nM	39 nM	–
CC(Cc1ccnc(-n2c(C(N)=O)cc3ccc(OC(F)(F)F)cc32)c1)C(=O)O (stereo in doubt; 13)	830 nM	44 nM	180 nM	140 nM	–
CC(Cc1cccc(-n2c(C(N)=O)cc3ccc(OC(F)(F)F)cc32)n1)C(=O)O (stereo in doubt; 14)	250 nM	92 nM	510 nM	65 nM	–
CCC(Cc1cccc(-n2c(C(N)=O)cc3ccc(OC(F)(F)F)cc32)n1)C(=O)O (stereo in doubt; 15)	330 nM	170 nM	1900 nM	170 nM	–
CC(CC(=O)O)c1cccc(-n2c(C(N)=O)cc3ccc(OC(F)(F)F)cc32)n1 (stereo in doubt; (-)-17)	–	–	–	–	Activity [12]: inactive; Activity [13]: inactive; Activity [14]: Active; Activity [15]: inactive; Activity [16]: inactive; Activity [17]: Active; IC90 [18]: 362 nM; Activity [19]: inactive; Activity [20]: inactive; IC90 [21]: 820 nM; Activity [22]: inactive; Activity [23]: inactive; Ratio IC50 [9]: 45; Activity [24]: Active; Ratio IC50 [10]: 390; Activity [25]: inactive; Activity [26]: Active; Activity [27]: inactive; Activity [28]: Active

Source: ChEMBL document CHEMBL4196112, “Design of Selective sPLA2-X Inhibitor (-)-2-{2-[Carbamoyl-6-(trifluoromethoxy)-1H-indol-1-yl]pyridine-2-yl}propanoic Acid” (ACS Med Chem Lett, 2018)
